Reference: publication PMC7284870, “Antimicrobial Peptides from Rat-Tailed Maggots of the Drone Fly Eristalis tenax Show Potent Activity against Multidrug-Resistant Gram-Negative Bacteria” (Microorganisms, 2020)
“And” between values parts separate entries of the source, which are not always exact repeats. Identical values can stand only once. Like-named read-outs stand apart in the source and are kept apart here. No end group written: not given here.

Assays:
[1] = Plasma stability; assay type: in vitro ADME; settings: 37 °C, LC-MS, triplicate; for hydrolysis in plasma: 5 µM; for remaining at 24 h, 5 µM: after 24 h, read-out: peptide remaining in plasma
Protocol: EtCec1-a, EtCec2-a, and EtDip were dissolved as 1 mM stock solutions in sterile deionized water and then incubated in 500 µL plasma from different species (human, mouse and rat) to a final concentration of 5 µM (20.7, 21.4, and 33.3 µg/mL for EtCec1-a, EtCec2-a, and EtDip, respectively) at 37 °C. At different time points (0, 1, 4, and 24 h), 100-µL samples were transferred to 500 µL ethanol containing 0.5% (v/v) NH3, and the plasma proteins were precipitated by centrifugation for 20 min. at 1735× g. EtCec1-a, EtCec2-a, and EtDip (10 µL injection volume) were analyzed in triplicate by LC-MS, and their stability was evaluated by comparing samples of with plasma incubated timepoints (t1, t4, t24) to untreated samples (t0). The peptides were separated on an AERIS Peptide 3.6-µm XB-C18 50 × 2.1 mm column (Phenomenex, Torrance, CA, USA) with an ascending acetonitrile gradient in water (that was supplemented with 0.1% formic acid) at a flow rate of 500 µL/min.

[2] = test system: E. coli ATCC 25922
Summary of the method: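 MIC was determined by broth microdilution in cation-adjusted Mueller–Hinton broth at 5 × 10^5 cells/mL. Peptides were tested at 1024–0.03125 µg/mL final, with 18 h incubation at 37 °C with shaking. Growth was scored visually and by OD600. Medium was supplemented with 150 mM NaCl or 1.25 mM CaCl2.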

[3] = Metabolic stability in human hepatocytes; assay type: in vitro ADME; settings: cryopreserved human hepatocytes in suspension, 0.5 × 10^6 cells/mL, 1 µM peptide
Protocol: The metabolic stability of the E. tenax peptides was assessed by determining the intrinsic clearance while using cryopreserved human hepatocytes in suspension culture in a volume of 60 µL with a seeding densitiy of 0.5 × 10^6 hepatocytes/mL. The peptides were added at a concentration of 1 µM (4.14, 4.28, and 6.65 µg/mL for EtCec1-a, EtCec2-a, and EtDip, respectively). Scaled hepatic clearance for human was calculated based on a weight of 25.71 g liver/kg and a hepatocellularity of 99 × 10^6 cells/g liver.

[4] = test system: A. baumannii RKI 19/09; assay: microbe, parasite or virus in culture; assay type: cell-based, Acinetobacter baumannii
Protocol: The strains that were used in this study (Table 2 and Table S1) were cultivated at 37 °C in cation-adjusted Mueller–Hinton broth (CAMB) in Erlenmeyer flasks, or on the same medium with agar in Petri dishes. Exceptionally, Mycobacterium smegmatis was cultivated at 37 °C in brain heart infusion (BHI) medium that was supplemented with 1% Tween-80 in Erlenmeyer flasks, or on the same medium lacking detergent but with agar in Petri dishes. Strains listed with Robert Koch Institute (RKI) strain numbers are clinical isolates from the RKI strain collection originating from hospitalized patients in Germany. The remaining strains originated from the Sanofi strain collection and they were originally purchased from the American Type Culture Collection or the German Collection of Microorganisms and Cell Cultures. Meropenem/colistin-resistant strains were maintained, as described above, with the appropriate antibiotic added at levels below the minimal inhibitory concentration (MIC).
The MIC values were determined in 384-well microtiter plates with an assay volume of 20 µL. Immediately before each assay, the cultures of test organisms (bacteria grown for 18 h, Candida albicans and M. smegmatis grown for 48 h) were diluted with the appropriate medium to a density of 1 × 10^6 cells/mL (C. albicans), 1 × 10^5 cells/mL (M. smegmatis) or 5 × 10^5 cells per mL (other species). […] We transferred 2-µL aliquots from this dilution series to new 384-well microtiter plates while using a CyBio-Well 384-channel automated pipettor (Analytic Jena, Jena, Germany) and added 18 µL of the diluted suspension of each test species using a Viafill reagent dispenser (Integra), thus reducing the final peptide concentration 10-fold to the range 1024–0.03125 µg/mL. […] The growth of M. smegmatis was measured using the BacTiter-Glo luminescence test system (Promega, Madison, WI, USA). The growth of the other species was determined by visual inspection of the microtiter plate and turbidimetry based on the optical density at 600 nm (OD600). The MIC was defined as the peptide concentration at which no bacterial growth was observed. We supplemented the test medium with either 150 mM NaCl or 1.25 mM CaCl2 to represent monovalent and divalent cations to simulate physiological conditions.

[5] = CAMB + 0.075 µg/mL colistin (Col), n=3
[6] = CAMB + A000173039A [0.25 µg/mL]
[7] = CAMB + A000499933A [0.0625 µg/mL]
[8] = CAMB + A000500059A [0.0625 µg/mL]
[9] = CAMB + A000500146A [0.0625 µg/mL]
[10] = CAMB + Colistin E1 [0.016 µg/mL]
[11] = CAMB + Colistin E2 [0.016 µg/mL]
[12] = CAMB adjusted to 150 mM NaCl, n=3

Molecule	MIC [2, 5]	MIC ([2]; CAMB + A000160918 [4 µg/mL])	MIC ([2]; CAMB + A000161246 [4 µg/mL])	MIC ([2]; CAMB + A000173031A [4 µg/mL])	MIC ([2]; CAMB + A000173033A [4 µg/mL])	MIC [2, 6]	MIC ([2]; CAMB + A000173380A [4 µg/mL])	MIC ([2]; CAMB + A000498432A [4 µg/mL])	MIC [2, 7]	MIC [2, 8]	MIC [2, 9]	MIC ([2]; CAMB + A000501181A [4 µg/mL])	MIC [2, 10]	MIC [2, 11]	MIC ([2]; CAMB + PMB [0.016 µg/mL])	MIC ([2]; CAMB + PMBN [4 µg/mL])	MIC ([2]; CAMB, 18 h, 37 °C, n = 4)	MIC ([2]; Table 6, CAMB)	half-life [3]	MIC [4, 5]	also measured
QFNMQGGGSPRQGFDVNANARFPIWQSQNARNSVHGTASYAQHLGGPYGNSRPNFGGGLQFT [EtDip, diptericin-like peptide of Eristalis tenax]	4 mg/L	>256 mg/L	>256 mg/L	>256 mg/L	>256 mg/L	>256 mg/L	>256 mg/L	>256 mg/L	>256 mg/L	>256 mg/L	4 mg/L	>256 mg/L	>256 mg/L	2 mg/L	2 mg/L	>256 mg/L	>1024 mg/L	>256 mg/L	5.75 h and > 3.33 h	1024 mg/L	hydrolysis in plasma ([1]; human plasma, after 1 h): ≥ 83%; hydrolysis in plasma ([1]; mouse plasma, after 1 h): ≥ 83%; hydrolysis in plasma ([1]; rat plasma, after 1 h): ≥ 83%; MIC ([2]; Table 5, CAMB, n=3): >1024 mg/L; MIC ([4]; Table 5, CAMB, n=3): >1024 mg/L
GFLKKIGKKLEGAVQRTRDATIQTIAVAQAAANVAATAKQ-NH2 [EtCec1-NH2]	–	–	–	–	–	–	–	–	–	–	–	–	–	–	–	–	–	–	> 3.33 h	–	remaining at 24 h, 5 µM ([1]; human plasma): 48%; hydrolysis in plasma ([1]; mouse plasma, within 24 h): completely hydrolyzed; hydrolysis in plasma ([1]; rat plasma, within 24 h): completely hydrolyzed; MIC ([2]; ATCC 25922, 18 h): 8 mg/L; half-life at 1 µM [3]: 7.13 h; MIC ([4]; RKI 19/09, 18 h): 4 mg/L
C[C@@H](O)[C@H]1C(=O)N2C(C(=O)O)=C(S[C@@H]3CN[C@H](C(=O)N(C)C)C3)[C@H](C)[C@H]12 [MEM, meropenem]	–	–	–	–	–	–	–	–	–	–	–	–	–	–	–	–	–	–	–	–	MIC ([4]; Acinetobacter baumannii, RKI19/09, Table S1, RKI 19/09, read-out: MIC): > 64 mg/L
GWLRDFGKRIERTGQNIRDATIQTIGIAQEAANVAATLK-NH2 [EtCec2-NH2]	4 mg/L	>256 mg/L	>256 mg/L	>256 mg/L	>256 mg/L	>256 mg/L	>256 mg/L	>256 mg/L	128 mg/L	256 mg/L	4 mg/L	256 mg/L	4 mg/L	2 mg/L	2 mg/L	>256 mg/L	32 mg/L	32 mg/L	> 3.33 h	8 mg/L	remaining at 24 h, 5 µM ([1]; human plasma): 22%; hydrolysis in plasma ([1]; mouse plasma, within 24 h): completely hydrolyzed; hydrolysis in plasma ([1]; rat plasma, within 24 h): completely hydrolyzed; MIC [2, 12]: 32 mg/L; MIC ([2]; Table 4, CAMB, n=3): 32 mg/L; half-life at 1 µM [3]: 3.43 h; MIC [4, 12]: 16 mg/L; MIC ([4]; Table 4, CAMB, n=3): 8 mg/L
